For eleven molecules, EC50 and IC50 results are on record in patent US20250129070A1, “BIFUNCTIONAL ANDROGEN RECEPTOR COMPOUNDS” (priority 2023, published 2025).

Assay [1] deals with AR / CBP ternary complex. Briefly: Ternary complex formation assay (sandwich ELISA, AR capture / CBP detection) in VCaP cell lysates. In kind it is cell-based. Conditions: 1.5 hours treatment, sandwich ELISA (AR capture, CBP or p300 detection). An outline of the steps: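 VCaP cells (50K/well, 5% charcoal-stripped FBS, ≥3 days) treated with bifunctional compound for 1.5 h, then lysed 30 min at 4 °C. AR captured on anti-AR (AR 441) plates; bound CBP or p300 detected by rabbit mAb plus HRP secondary. QuantaRed chemifluorescence read at ex 570/em 585, immediately and at 5 and 15 min.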
A general note: ELISA stands for enzyme-linked immunosorbent assay.

For assay [2], the system named is VCaP cells. Kind of assay: VCaP growth inhibition assay. In kind it is cell-based. Conditions: 30 pM R1881, 9 days, CTG. An outline of the steps: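 VCaP cells in phenol red-free DMEM/5% CSS, pre-incubated 72 h, then stimulated with R1881 (final 30 pM) and treated with 1:5 serial dilutions (final 100 nM to 10 fM) for 9 days at 37 °C. Viability by CellTiter-Glo luminescence; IC50 from 4-parameter logistic fit of RLU vs concentration.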

Where only a bound is given, the exact number is not on record here.

One may read the EC50 as the concentration giving half of the maximal effect. By IC50 is commonly meant the concentration needed to halve the response being measured. Low values mean higher potency, high ones lower potency. In the case of `CC(=O)N1CCc2c(c(-c3cccc4cc(-c5ccc(C(=O)NC6CCN(c7ncc(C(=O)NC8C(C)(C)C(Oc9ccc(C#N)c(Cl)c9)C8(C)C)cn7)CC6)nc5)ncc34)nn2C2CCOCC2)C1` (stereo not shown) [Compound 180, 2-[4-[[5-[8-(5-acetyl-1-tetrahydropyran-4-yl-6,7-dihydro-4H-pyrazolo[4,3-c]pyridin-3-yl)-3-isoquinolyl]pyridine-2-carbonyl]amino]-1-piperidyl]-N-[3-(3-chloro-4-cyano-phenoxy)-2,2,4,4-tetramethylcyclobutyl]pyrimidine-5-carboxamide], the EC50 in assay [1] was below 1 nM. This molecule also showed an IC50 in assay [2] of at most 0.1 nM.

As for `CC(=O)N1CCc2c(c(N3CCCc4cc(-c5cnn(C)c5)c(C(F)F)cc43)nn2C2CCC(N(C)C3CCN(c4ncc(C(=O)NC5C(C)(C)C(Oc6ccc(C#N)c(Cl)c6)C5(C)C)cn4)CC3)CC2)C1` (stereo not shown) [Compound 284, 2-[4-[[4-[5-acetyl-3-[7-(difluoromethyl)-6-(1-methylpyrazol-4-yl)-3,4-dihydro-2H-quinolin-1-yl]-6,7-dihydro-4H-pyrazolo[4,3-c]pyridin-1-yl]cyclohexyl]-methyl-amino]-1-piperidyl]-N-[3-(3-chloro-4-cyano-phenoxy)-2,2,4,4-tetramethyl-cyclobutyl]pyrimidine-5-carboxamide], the EC50 in assay [1] was below 1 nM. Further, the IC50 in assay [2] is at most 0.1 nM.

Molecule `CC(=O)N1CCc2c(c(-c3cccc4cc(-c5cnn(CC6CC7(C6)CN(c6ncc(C(=O)NC8C(C)(C)C(Oc9ccc(C#N)c(Cl)c9)C8(C)C)cn6)C7)c5)ncc34)nn2C2CCOCC2)C1` (stereo not shown) [Compound 223, 2-[6-[[4-[8-(5-acetyl-1-tetrahydropyran-4-yl-6,7-dihydro-4H-pyrazolo[4,3-c]pyridin-3-yl)-3-isoquinolyl]pyrazol-1-yl]methyl]-2-azaspiro[3.3]heptan-2-yl]-N-[3-(3-chloro-4-cyano-phenoxy)-2,2,4,4-tetramethyl-cyclobutyl]pyrimidine-5-carboxamide] registered an EC50 in assay [1] below 1 nM. In assay [2], this molecule returned an IC50 of at most 0.1 nM.

Take `CC(=O)N1CCc2c(c(N3CCCc4cc(C#N)ccc43)nn2C2CC3(C2)CN(CC2CC4(C2)CN(c2ncc(C(=O)NC5C(C)(C)C(Oc6ccc(C#N)c(Cl)c6)C5(C)C)cn2)C4)C3)C1` (stereo not shown) [Compound 221, 2-[6-[[6-[5-acetyl-3-(6-cyano-3,4-dihydro-2H-quinolin-1-yl)-6,7-dihydro-4H-pyrazolo[4,3-c]pyridin-1-yl]-2-azaspiro[3.3]heptan-2-yl]methyl]-2-azaspiro[3.3]heptan-2-yl]-N-[3-(3-chloro-4-cyano-phenoxy)-2,2,4,4-tetramethyl-cyclobutyl]pyrimidine-5-carboxamide]: the EC50 in assay [1] lay within 1 to 10 nM. In addition, the half-inhibitory concentration (IC50) in assay [2] lay within 1 to 100 nM.

In turn, `CC(=O)N1CCc2c(c(N3CCCc4cc(-c5cnn(C)c5)c(C(F)F)cc43)nn2C2CCN([C@H]3CCN(c4ncc(C(=O)NC5C(C)(C)C(Oc6ccc(C#N)c(Cl)c6)C5(C)C)cn4)C3)CC2)C1` (stereo partly drawn) [Compound 334, 2-[(3S)-3-[4-[5-acetyl-3-[7-(difluoromethyl)-6-(1-methylpyrazol-4-yl)-3,4-dihydro-2H-quinolin-1-yl]-6,7-dihydro-4H-pyrazolo[4,3-c]pyridin-1-yl]-1-piperidyl]pyrrolidin-1-yl]-N-[3-(3-chloro-4-cyano-phenoxy)-2,2,4,4-tetramethyl-cyclobutyl]pyrimidine-5-carboxamide] came in with a concentration for a half-maximal effect (EC50) in assay [1] below 1 nM. For the same molecule, in assay [2], the IC50 lay within 0.1 to 1 nM.

For the molecule `CC(=O)N1CCc2c(c(N3CCc4cc(-c5cnn(C)c5)c(C(F)F)cc43)nn2C2CCN(CC3CCN(c4ncc(C(=O)NC5C(C)(C)C(Oc6ccc(C#N)c(Cl)c6)C5(C)C)cn4)CC3)CC2)C1` (stereo not shown) [Compound 13, 2-[4-[[4-[5-acetyl-3-[6-(difluoromethyl)-5-(1-methylpyrazol-4-yl)indolin-1-yl]-6,7-dihydro-4H-pyrazolo[4,3-c]pyridin-1-yl]-1-piperidyl]methyl]-1-piperidyl]-N-[3-(3-chloro-4-cyano-phenoxy)-2,2,4,4-tetramethyl-cyclobutyl]pyrimidine-5-carboxamide], the EC50 in assay [1] was in the range of 1 to 10 nM. Besides, the IC50 in assay [2] is 0.1 to 1 nM.

For `CC(=O)N1CCc2c(c(N3CCCc4cc(-c5cnn(C)c5)c(C(F)F)cc43)nn2C2CN(C3CCN(c4ncc(C(=O)NC5C(C)(C)C(Oc6ccc(C#N)c(Cl)c6)C5(C)C)cn4)CC3)C2)C1` (stereo not shown) [Compound 11, 2-[4-[3-[5-acetyl-3-[7-(difluoromethyl)-6-(1-methylpyrazol-4-yl)-3,4-dihydro-2H-quinolin-1-yl]-6,7-dihydro-4H-pyrazolo[4,3-c]pyridin-1-yl]azetidin-1-yl]-1-piperidyl]-N-[3-(3-chloro-4-cyano-phenoxy)-2,2,4,4-tetramethyl-cyclobutyl]pyrimidine-5-carboxamide], the EC50 in assay [1] lay within 10 to 100 nM. Further, the IC50 in assay [2] was in the range of 0.1 to 1 nM.

`COc1cc(OC2C(C)(C)C(NC(=O)c3ccc(N4CCC(OC5CCC(n6nc(N7CCCc8cc(-c9cnn(C)c9)c(C(F)F)cc87)c7c6CCN(C(C)=O)C7)CC5)CC4)cc3)C2(C)C)ccc1C#N` (stereo not shown) [Compound 309, 4-[4-[4-[5-acetyl-3-[7-(difluoromethyl)-6-(1-methylpyrazol-4-yl)-3,4-dihydro-2H-quinolin-1-yl]-6,7-dihydro-4H-pyrazolo[4,3-c]pyridin-1-yl]cyclohexoxy]-1-piperidyl]-N-[3-(4-cyano-3-methoxy-phenoxy)-2,2,4,4-tetramethyl-cyclobutyl]benzamide] returned an EC50 in assay [1] below 1 nM. The molecule further displayed an IC50 in assay [2] of 0.1 to 1 nM.

In assay [1], `COc1cc(OC2C(C)(C)C(NC(=O)c3ccc(N4CCC(CN5CCC(n6nc(N7CCCc8cc(-c9cnn(C)c9)c(C(F)F)cc87)c7c6CCN(C(C)=O)C7)CC5)CC4)cc3)C2(C)C)ccc1C#N` (stereo not shown) [Compound 185, 4-[4-[[4-[5-acetyl-3-[7-(difluoromethyl)-6-(1-methylpyrazol-4-yl)-3,4-dihydro-2H-quinolin-1-yl]-6,7-dihydro-4H-pyrazolo[4,3-c]pyridin-1-yl]-1-piperidyl]methyl]-1-piperidyl]-N-[3-(4-cyano-3-methoxy-phenoxy)-2,2,4,4-tetramethyl-cyclobutyl]benzamide] displayed an EC50 below 1 nM. Further, in assay [2], the 50% inhibitory concentration (IC50) was at most 0.1 nM.

`COC1CN(c2ncc(C(=O)NC3C(C)(C)C(Oc4ccc(C#N)c(Cl)c4)C3(C)C)cn2)CCC1CN1CCC(n2nc(N3CCCc4cc(-c5cnn(C)c5)c(C(F)F)cc43)c3c2CCN(C(C)=O)C3)CC1` (stereo not shown) [Compound 331, 2-[4-[[4-[5-acetyl-3-[7-(difluoromethyl)-6-(1-methylpyrazol-4-yl)-3,4-dihydro-2H-quinolin-1-yl]-6,7-dihydro-4H-pyrazolo[4,3-c]pyridin-1-yl]-1-piperidyl]methyl]-3-methoxy-1-piperidyl]-N-[3-(3-chloro-4-cyano-phenoxy)-2,2,4,4-tetramethyl-cyclobutyl]pyrimidine-5-carboxamide] registered an EC50 in assay [1] below 1 nM. Also, the IC50 in assay [2] lay in the range of 0.1 to 1 nM.

As for `CC(=O)N1CCc2c(c(N3CCCc4cc(-c5cnn(C)c5)c(C(F)F)cc43)nn2C2CCN(CC3C(C)CN(c4ncc(C(=O)NC5C(C)(C)C(Oc6ccc(C#N)c(C)c6C)C5(C)C)cn4)CC3C)CC2)C1` (stereo not shown) [Compound 461, 2-[4-[[4-[5-acetyl-3-[7-(difluoromethyl)-6-(1-methylpyrazol-4-yl)-3,4-dihydro-2H-quinolin-1-yl]-6,7-dihydro-4H-pyrazolo[4,3-c]pyridin-1-yl]-1-piperidyl]methyl]-3,5-dimethyl-1-piperidyl]-N-[3-(4-cyano-2,3-dimethyl-phenoxy)-2,2,4,4-tetramethyl-cyclobutyl]pyrimidine-5-carboxamide], the EC50 in assay [1] was below 1 nM. The molecule further showed an IC50 in assay [2] of at most 0.1 nM.
